Assay results as given in ChEMBL document CHEMBL1201862, “PubChem BioAssay data set” (2004).
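Each compound was tested at five concentrations against cells in 96-well plates for 48 hours. The concentration for 50% growth inhibition is given as GI50.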 The source made the active and inactive calls. No stated cut-off is given here; in the data, active = GI50 up to about 1.1 µM and inactive = higher.

Columns and labels:
Experiment in all cases: NCI anticancer screen, dose series, 48 h
CAKI-1 = system: CAKI-1
OVCAR-8 = system: OVCAR-8
KM12 = system: KM12
A549 = system: A549
NCI-H522 = system: NCI-H522
OVCAR-5 = system: OVCAR-5
UO-31 = system: UO-31
SK-MEL-28 = system: SK-MEL-28
Malme-3M = system: Malme-3M
NCI-H23 = system: NCI-H23
NCI-H460 = system: NCI-H460
TK-10 = system: TK-10
UACC-257 = system: UACC-257
786-0 = system: 786-0
HOP-92 = system: HOP-92
K562 = system: K562
NCI-H226 = system: NCI-H226
SK-MEL-2 = system: SK-MEL-2
MOLT-4 = system: MOLT-4
OVCAR-3 = system: OVCAR-3

SMILES	GI50 (CAKI-1)	GI50 (OVCAR-8)	GI50 (KM12)	GI50 (A549)	GI50 (NCI-H522)	GI50 (OVCAR-5)	GI50 (UO-31)	GI50 (SK-MEL-28)	GI50 (Malme-3M)	GI50 (NCI-H23)	GI50 (NCI-H460)	GI50 (TK-10)	GI50 (UACC-257)	GI50 (786-0)	GI50 (HOP-92)	GI50 (K562)	GI50 (NCI-H226)	GI50 (SK-MEL-2)	GI50 (MOLT-4)	GI50 (OVCAR-3)
Cc1c(Cl)cc(C(C)(C)C)c(O)c1Cc1c(C)c(Cl)cc(C(C)(C)C)c1O	1.32 µM (inactive)	1.49 µM (inactive)	1.44 µM (inactive)	0.804 µM (active)	0.299 µM (active)	3.43 µM (inactive)	1.82 µM (inactive)	2.33 µM (inactive)	0.406 µM (active)	0.656 µM (active)	0.634 µM (active)	2.04 µM (inactive)	1.36 µM (inactive)	1.73 µM (inactive)	0.304 µM (active)	0.752 µM (active)	2.22 µM (inactive)	1.73 µM (inactive)	0.818 µM (active)	0.436 µM (active)
COc1ccc(/C=C/c2cnc3ccccc3n2)cc1OC	74.3 µM (inactive)	41.7 µM (inactive)	47.8 µM (inactive)	42.6 µM (inactive)	24.1 µM (inactive)	> 100 µM (inactive)	34.7 µM (inactive)	92.3 µM (inactive)	38.2 µM (inactive)	67.8 µM (inactive)	30.3 µM (inactive)	> 100 µM (inactive)	> 100 µM (inactive)	53.6 µM (inactive)	94.8 µM (inactive)	44.5 µM (inactive)	> 100 µM (inactive)	92.7 µM (inactive)	> 100 µM (inactive)	93.1 µM (inactive)
C[C@]12CC[C@H](O)C=C1CC[C@@H]1[C@@H]2CC[C@]2(C)C(=N/O)/C(=C/c3ccncc3)C[C@@H]12	14.9 µM (inactive)	16 µM (inactive)	8 µM (inactive)	5.19 µM (inactive)	9.35 µM (inactive)	19.2 µM (inactive)	3.68 µM (inactive)	19.7 µM (inactive)	17.5 µM (inactive)	16.1 µM (inactive)	6.1 µM (inactive)	12.4 µM (inactive)	7.67 µM (inactive)	12.9 µM (inactive)	7.48 µM (inactive)	5.13 µM (inactive)	10.2 µM (inactive)	10.3 µM (inactive)	4.43 µM (inactive)	5.53 µM (inactive)
O=C1CCC(=O)c2c1c(O)c1ccncc1c2O	23.9 µM (inactive)	10 µM (inactive)	16.3 µM (inactive)	20.4 µM (inactive)	12 µM (inactive)	23 µM (inactive)	15.5 µM (inactive)	20.5 µM (inactive)	16 µM (inactive)	16.4 µM (inactive)	15.1 µM (inactive)	18.4 µM (inactive)	7.5 µM (inactive)	15.7 µM (inactive)	22.8 µM (inactive)	18.8 µM (inactive)	20.6 µM (inactive)	13.6 µM (inactive)	18.2 µM (inactive)	2.88 µM (inactive)
CS(=O)(=O)Nc1ccc2ccccc2c1-c1c(NS(C)(=O)=O)ccc2ccccc12	> 25 µM (inactive)	> 25 µM (inactive)	> 25 µM (inactive)	> 25 µM (inactive)	> 25 µM (inactive)	> 25 µM (inactive)	> 25 µM (inactive)	> 25 µM (inactive)	> 25 µM (inactive)	> 25 µM (inactive)	> 25 µM (inactive)	> 25 µM (inactive)	> 25 µM (inactive)	> 15.5 µM (inactive)	> 25 µM (inactive)	> 25 µM (inactive)	> 25 µM (inactive)	> 25 µM (inactive)	> 25 µM (inactive)	> 25 µM (inactive)
COc1cc(C2c3cc4c(cc3OC(NC3CCCCC3)C2C)OCO4)cc(OC)c1OC (stereo not given)	0.409 µM (active)	0.845 µM (active)	0.407 µM (active)	0.885 µM (active)	0.359 µM (active)	3.03 µM (inactive)	0.515 µM (active)	21.8 µM (inactive)	0.321 µM (active)	0.499 µM (active)	0.488 µM (active)	16.9 µM (inactive)	46.8 µM (inactive)	0.493 µM (active)	2.65 µM (inactive)	0.393 µM (active)	1.52 µM (inactive)	0.578 µM (active)	0.48 µM (active)	0.267 µM (active)
CCOC(=O)CCC(NC(=O)Cc1ccc(Nc2nc3cc(F)c(F)cc3nc2C(=O)OCC)cc1)C(=O)OCC (stereo not given)	> 100 µM (inactive)	94.2 µM (inactive)	> 100 µM (inactive)	> 100 µM (inactive)	38.2 µM (inactive)	> 100 µM (inactive)	> 100 µM (inactive)	> 100 µM (inactive)	88.1 µM (inactive)	> 100 µM (inactive)	> 100 µM (inactive)	> 100 µM (inactive)	28.6 µM (inactive)	> 100 µM (inactive)	28.8 µM (inactive)	37.2 µM (inactive)	> 100 µM (inactive)	23.7 µM (inactive)	44.6 µM (inactive)	> 100 µM (inactive)
Cc1cccc(-c2nc3ccc([N+](=O)[O-])cc3c(=O)o2)c1	> 100 µM (inactive)	46.7 µM (inactive)	90.6 µM (inactive)	73.3 µM (inactive)	32.3 µM (inactive)	> 100 µM (inactive)	43.8 µM (inactive)	> 100 µM (inactive)	51.4 µM (inactive)	72.8 µM (inactive)	51.8 µM (inactive)	59.3 µM (inactive)	64.3 µM (inactive)	48.8 µM (inactive)	16 µM (inactive)	35.3 µM (inactive)	71.6 µM (inactive)	91.2 µM (inactive)	27.6 µM (inactive)	47.9 µM (inactive)
O=C1Nc2ccccc2C1S(=O)(=O)c1ccccc1 (stereo not given)	> 100 µM (inactive)	> 100 µM (inactive)	> 100 µM (inactive)	> 100 µM (inactive)	> 100 µM (inactive)	> 100 µM (inactive)	> 100 µM (inactive)	> 100 µM (inactive)	> 100 µM (inactive)	> 100 µM (inactive)	> 100 µM (inactive)	> 100 µM (inactive)	> 100 µM (inactive)	> 100 µM (inactive)	> 100 µM (inactive)	> 100 µM (inactive)	> 100 µM (inactive)	> 100 µM (inactive)	> 100 µM (inactive)	> 100 µM (inactive)
O=C(c1nc2ccc([N+](=O)[O-])cc2nc1O)C(O)c1ccc2c(c1)OCO2 (stereo not given)	> 96.2 µM (inactive)	> 100 µM (inactive)	> 51.2 µM (inactive)	> 100 µM (inactive)	14.8 µM (inactive)	> 100 µM (inactive)	> 100 µM (inactive)	> 100 µM (inactive)	> 100 µM (inactive)	> 100 µM (inactive)	> 100 µM (inactive)	> 100 µM (inactive)	> 100 µM (inactive)	> 100 µM (inactive)	> 100 µM (inactive)	> 78.9 µM (inactive)	> 100 µM (inactive)	> 100 µM (inactive)	> 100 µM (inactive)	> 50.7 µM (inactive)
COc1nc(NC2OC(COC(C)=O)C(OC(C)=O)C(OC(C)=O)C2OC(C)=O)c(-c2csc(N)n2)c(=O)n1C (stereo not given)	32.3 µM (inactive)	31.8 µM (inactive)	> 100 µM (inactive)	55 µM (inactive)	46.5 µM (inactive)	> 100 µM (inactive)	52.8 µM (inactive)	55.7 µM (inactive)	26.8 µM (inactive)	66.1 µM (inactive)	73.1 µM (inactive)	> 100 µM (inactive)	58.3 µM (inactive)	20.5 µM (inactive)	28.4 µM (inactive)	60.1 µM (inactive)	37.9 µM (inactive)	21.5 µM (inactive)	> 100 µM (inactive)	93.3 µM (inactive)
COC(=O)c1ccccc1C1CN=NC12Cc1c(C)cccc1C2=O (stereo not given)	> 100 µM (inactive)	> 100 µM (inactive)	> 100 µM (inactive)	61.5 µM (inactive)	> 100 µM (inactive)	71.8 µM (inactive)	73.1 µM (inactive)	> 100 µM (inactive)	> 100 µM (inactive)	> 100 µM (inactive)	> 100 µM (inactive)	> 100 µM (inactive)	> 100 µM (inactive)	> 100 µM (inactive)	29.1 µM (inactive)	> 100 µM (inactive)	> 100 µM (inactive)	48.3 µM (inactive)	69.5 µM (inactive)	> 100 µM (inactive)
O=C1CC(=O)NC(NN2C(=O)CSC2c2ccccc2)=N1 (stereo not given)	> 100 µM (inactive)	> 100 µM (inactive)	> 100 µM (inactive)	> 100 µM (inactive)	> 100 µM (inactive)	> 100 µM (inactive)	> 100 µM (inactive)	> 100 µM (inactive)	> 100 µM (inactive)	> 100 µM (inactive)	> 100 µM (inactive)	> 100 µM (inactive)	> 100 µM (inactive)	> 100 µM (inactive)	55.8 µM (inactive)	> 100 µM (inactive)	> 100 µM (inactive)	> 100 µM (inactive)	> 100 µM (inactive)	> 100 µM (inactive)
CCCCCCCCCCCCn1[nH]c(C)c(C(=S)SCCCCCCCC)c1=O	32.1 µM (inactive)	30.7 µM (inactive)	70.1 µM (inactive)	69.5 µM (inactive)	31.9 µM (inactive)	> 100 µM (inactive)	60.3 µM (inactive)	> 100 µM (inactive)	> 100 µM (inactive)	73.3 µM (inactive)	61.4 µM (inactive)	64.6 µM (inactive)	41.8 µM (inactive)	45.4 µM (inactive)	> 100 µM (inactive)	40.3 µM (inactive)	23.4 µM (inactive)	> 100 µM (inactive)	14 µM (inactive)	34.8 µM (inactive)
